Measurements published in patent publication US6476242B1 (Bristol-Myers Squibb Company, priority 1997, dated 2002).
Where “and” joins values, the source holds several entries; their conditions need not be identical. Identical values can stand only once.

What was measured:
[1] = tested on: Tubulin; assay: Tubulin Data (Table 1); type: biochemical; settings: ratio analog/paclitaxel for tubulin data
[2] = tested on: HCT116; assay: HCT116 activity (Table 1); type: cell-based; settings: for IC50: HCT116 cells, unit inferred; for anal/PT (beside HCT116 and 116/VM46): ratio analog/paclitaxel in HCT116
[3] = tested on: 116/VM46; assay: 116/VM46 activity, resistant line (Table 1); type: cell-based; settings: for IC50: 116/VM46 cells, unit inferred; for R/S ratio: ratio 116/VM46 (resistant) to HCT116 (sensitive)

SMILES | anal/PT (beside Tubulin Data) [1] | IC50 [2] | IC50 [3] | R/S ratio [3] | anal/PT (beside HCT116 and 116/VM46) [2]
COc1cccc(C(=O)O[C@H]2[C@@H]3[C@]4(OC(=O)C5CC5)CO[C@@H]4C[C@H](O)[C@@]3(C)C(=O)[C@H](OC(C)=O)C3=C(C)[C@@H](OC(=O)[C@H](O)[C@@H](NC(=O)c4ccccc4)c4ccccc4)C[C@]2(O)C3(C)C)c1 [MC-134-45, 2-(m-methoxybz)-4-cyclopropylCO-PT] | 1.3 | 2 nM | 40 nM | 20 | 
COC(=O)O[C@@]12CO[C@@H]1C[C@H](O)[C@@]1(C)C(=O)[C@H](OC(C)=O)C3=C(C)[C@@H](OC(=O)[C@H](O)[C@@H](NC(=O)c4ccccc4)c4ccccc4)C[C@@](O)([C@@H](OC(=O)c4cccc(OC)c4)[C@H]21)C3(C)C [MC-134-61, 2-(m-methoxybenzoyl)-4-MeOCO-PT] | 0.9 | 6.7 nM and 4.4 nM |  | 129 | 
COC(=O)O[C@@]12CO[C@@H]1C[C@H](O)[C@@]1(C)C(=O)[C@H](OC(C)=O)C3=C(C)[C@@H](OC(=O)[C@H](O)[C@@H](NC(=O)c4ccccc4)c4ccccc4)C[C@@](O)([C@@H](OC(=O)c4cccc(C)c4)[C@H]21)C3(C)C [MC-134-68, 2-(m-methylbenzoyl)-4-MeOCO-PT] | 0.8 | 2.1 nM | 44 nM | 21 | 
CC(=O)O[C@H]1C(=O)[C@@]2(C)[C@H]([C@H](OC(=O)c3cccc(N=[N+]=[N-])c3)[C@]3(O)C[C@H](OC(=O)[C@H](O)[C@@H](NC(=O)c4ccccc4)c4ccccc4)C(C)=C1C3(C)C)[C@]1(OC(=O)C3CC3)CO[C@@H]1C[C@@H]2O [MC-134-91, 2-m-azido-4-cyclopropylCO-PT] | 0.08 |  | 28 nM and < 16 nM | 10.4 | 
CC(=O)O[C@H]1C(=O)[C@@]2(C)[C@H]([C@H](OC(=O)c3cccc(Cl)c3)[C@]3(O)C[C@H](OC(=O)[C@H](O)[C@@H](NC(=O)c4ccccc4)c4ccccc4)C(C)=C1C3(C)C)[C@]1(OC(=O)C3CC3)CO[C@@H]1C[C@@H]2O [MC-134-92, 2-m-chloro-4-cyclopropylCO-PT] | 0.06 | 1.7 nM and 1.1 nM | 30 nM and < 16 nM | 18 | 
COC(=O)OC12COC1CC(O)C1(C)C(=O)C(OC(C)=O)C3=C(C)C(OC(=O)C(O)C(NC(=O)c4ccccc4)c4ccccc4)CC(O)(C(OC(=O)c4cccc(Cl)c4)C21)C3(C)C (stereo not shown) [MC-134-100, 2-m-chloro-4-MeOCO-PT] | 0.4 | 2.2 nM | 82 nM | 37 | 
COc1cccc(C(=O)O[C@H]2[C@@H]3[C@]4(OC(=S)SC)CO[C@@H]4C[C@H](O)[C@@]3(C)C(=O)[C@H](OC(C)=O)C3=C(C)[C@@H](OC(=O)[C@H](O)[C@@H](NC(=O)c4ccccc4)c4ccccc4)C[C@]2(O)C3(C)C)c1 [MC-134-229, 2-(m-methoxybenzoyl-4-xanthyl)PT] | 8.9 | 4.7 nM | 53.2 nM | 11.32 | 3.08
CSC(=S)O[C@@]12CO[C@@H]1C[C@H](O)[C@@]1(C)C(=O)[C@H](OC(C)=O)C3=C(C)[C@@H](OC(=O)[C@H](O)[C@@H](NC(=O)c4ccccc4)c4ccccc4)C[C@@](O)([C@@H](OC(=O)c4cccc(Cl)c4)[C@H]21)C3(C)C [MC-134-238, 2-(m-chlorobenzoyl-4-xanthyl)PT] | 3.5 | 5.7 nM | 58.6 nM | 10.34 | 3.72
CSC(=S)O[C@@]12CO[C@@H]1C[C@H](O)[C@@]1(C)C(=O)[C@H](OC(C)=O)C3=C(C)[C@@H](OC(=O)[C@H](O)[C@@H](NC(=O)c4ccccc4)c4ccccc4)C[C@@](O)([C@@H](OC(=O)c4cccc(N=[N+]=[N-])c4)[C@H]21)C3(C)C [MC-134-239, 2-(m-azidobenzoyl-4-xanthyl)PT] | 42 | 16.8 nM | 135 nM | 8.03 | 11.02
CC(=O)OC1C(=O)C2(C)C(O)CC3OCC3(OC(=O)C3CC3)C2C(OC(=O)c2ccc(Cl)cc2Cl)C2(O)CC(OC(=O)C(O)C(NC(=O)c3ccccc3)c3ccccc3)C(C)=C1C2(C)C (stereo not shown) [MC-134-247, 2-(2,4-dichlorobz)-4-cyclopropylCO-PT] | 0.7 | 2.5 nM | 76.6 nM | 30.64 | 1.09
CC(=O)OC1C(=O)C2(C)C(O)CC3OCC3(OC(=O)C3CC3)C2C(OC(=O)c2ccc(F)cc2F)C2(O)CC(OC(=O)C(O)C(NC(=O)c3ccccc3)c3ccccc3)C(C)=C1C2(C)C (stereo not shown) [MC-134-248, 2-(2,4-difluorobz)-4-cyclopropylCO-PT] | 0.2 | 2.1 nM | 8.2 nM | 3.86 | 1.03
COc1ccc(OC)c(C(=O)O[C@H]2[C@@H]3[C@]4(OC(=O)C5CC5)CO[C@@H]4C[C@H](O)[C@@]3(C)C(=O)[C@H](OC(C)=O)C3=C(C)[C@@H](OC(=O)[C@H](O)[C@@H](NC(=O)c4ccccc4)c4ccccc4)C[C@]2(O)C3(C)C)c1 [MC-134-250, 2-(2,5-dimethoxybz)-4-cyclopropylCO-PT] | 0.5 | 1.8 nM | 45.1 nM | 25.06 | 0.78
CC(=O)OC1C(=O)C2(C)C(O)CC3OCC3(OC(=O)c3cccc(Cl)c3)C2C(OC(=O)c2cccc(Cl)c2)C2(O)CC(OC(=O)C(O)C(NC(=O)c3ccccc3)c3ccccc3)C(C)=C1C2(C)C (stereo not shown) [MC-134-277, 2-(m-Cl-benzoyl)-4-(m-Cl-benzoyl)PT] | 144 | 2430 nM | 2460 nM |  | 
CC(=O)O[C@H]1C(=O)[C@@]2(C)[C@H]([C@H](OC(=O)c3ccccc3)[C@]3(O)C[C@H](OC(=O)[C@H](O)[C@@H](NC(=O)c4ccccc4)c4ccccc4)C(C)=C1C3(C)C)[C@]1(OC(C)=O)CO[C@@H]1C[C@@H]2O [paclitaxel (PT), paclitaxel, reference compound] | 1 | 2 nM | 203 nM |  | 
